Measured values reported in article PMC10052880 (Phytomedicine, 2023).

How the values were obtained:
SARS-CoV-2 3CL^pro [1] = molecular target: T1, SARS-CoV-2 3CL^pro (Severe acute respiratory syndrome coronavirus 2, UniProt P0DTD1); experiment: biochemical
SARS-CoV-2 3CL^pro [2] = molecular target: T1, SARS-CoV-2 3CL^pro; experiment: Inactivation kinetic analyses against SARS-CoV-2 3CL^pro; format: biochemical
[3] = IC50 (μM) 3 min, 3 min preincubation
[4] = IC50 (μM) 63 min, 63 min preincubation

SMILES | Ratio (SARS-CoV-2 3CL^pro [1]) | IC50 (SARS-CoV-2 3CL^pro [1]; [3]) [µM] | IC50 (SARS-CoV-2 3CL^pro [1]; [4]) [µM] | Ki (SARS-CoV-2 3CL^pro [2]) [µM] | kinact (SARS-CoV-2 3CL^pro [2]; read-out: Kinact (min^−1)) [min⁻¹]
COc1ccc(-c2cc(=O)c3c(O)cc(O)cc3o2)cc1-c1c(O)cc(O)c2c(=O)cc(-c3ccc(O)cc3)oc12 [bilobetin] | 3.54 | 32.1 | 9.06 | – | –
Oc1cc(O)c2c(c1)O[C@H](c1cc(O)c(O)c(O)c1)[C@@H](O)C2 [gallocatechin] | 3.30 | 3.23 | 0.98 | 2.52 | 0.03
O=c1cc(-c2ccc(O)c(-c3c(O)cc(O)c4c(=O)cc(-c5ccc(O)cc5)oc34)c2)oc2cc(O)cc(O)c12 [amentoflavone] | 1.92 | 82.1 | 42.9 | – | –
O=c1cc(-c2ccc(O)cc2)oc2cc(O)cc(O)c12 [apigenin] | 3.62 | 115 | 31.7 | – | –
COc1cc(O)c2c(=O)cc(-c3ccc(OC)c(-c4c(O)cc(O)c5c(=O)cc(-c6ccc(O)cc6)oc45)c3)oc2c1 [ginkgetin] | 10.32 | 76.5 | 7.42 | – | –
O=c1cc(-c2ccc(O)c(O)c2)oc2cc(O)cc(O)c12 [luteolin] | 10.57 | 195 | 18.4 | – | –
Oc1cc(O)c2c(c1)O[C@H](c1ccc(O)c(O)c1)[C@H](O)C2 [epicatechin] | 6.22 | 70.6 | 11.3 | – | –
COc1ccc(-c2cc(=O)c3c(O)cc(O)c(-c4cc(-c5cc(=O)c6c(O)cc(O)cc6o5)ccc4OC)c3o2)cc1 [isoginkgetin] | 2.01 | 70.8 | 35.2 | – | –
